How the values were obtained:
[1] = tested on: HCT116 colon cancer cells; test: HCT116 cell viability and proliferation assay (MTS); type: cell-based; conditions: Homo sapiens, HCT-116, 72 hours incubation, mean of three independent experiments, read-out: HCT116 GI50 D3
Protocol: HCT116 colon cancer cells were obtained from ATCC (American Type Culture Collection), and maintained in Mc Coy's 5A medium containing 10% FBS, 3 mM glutamine and 1% penicillin/streptomycin. Cells were incubated at 37° C. in a humidified atmosphere containing 5% CO2.
(§1) Cell viability was assayed using the MTS technique in 96-well culture plates (CellTiter 96® Aqueous Non-Radioactive Cell Proliferation Assay, Promega) according to the manufacturer's instructions. MTS (3-(4,5-dimethyl-thiazol-2-yl)-5-(3-carboxymethoxyphenyl)-2-(4-sulfophenyl)-2H-tetra-zolium) is a MTT-derived tetrazolium that is reduced in metabolically active cells into a soluble, cell-permeant formazan. The amount of formazan, detected by its absorbance at 492 nm is proportional to the number of living, metabolically active cells.
(§2) 10^3 HCT116 cells were seeded per well. 24 hours later, the medium was changed and the cells treated in triplicate with the following concentrations of each compound: 10 μM-3.33 μM-1.11 μM-370 nM-123 nM-41 nM-14 nM and 5 nM. The compounds were diluted in 100% DMSO, whose final concentration on cells was kept at 0.5%.
(§3) Cells were incubated with the compounds for 72 hours, and their viability then assayed by the addition of MTS for 2 hours. Absorbance at 492 nm was measured directly from the 96-well culture plates. G150 (Growth Inhibition 50) concentrations for each compound were calculated using a sigmoidal variable slope fit (Prism 4.0, Graphpad Softwares). Values represent mean of three independent experiments.

[2] = tested on: PC-3 prostate cancer cells; test: PC3 cell viability and proliferation assay (MTS); type: cell-based; conditions: Homo sapiens, PC-3, 72 hours incubation, mean of three independent experiments, read-out: PC3 GI50 D3
Protocol: PC-3 prostate cancer cells were obtained from ATCC, and maintained in F-12K medium containing 7% FBS and 1% penicillin/streptomycin. Cells were incubated at 37° C. in a humidified atmosphere containing 5% CO2.
as §1, with “(3-(4,5-dimethyl-thiazol-2-yl)-5-(3-carboxymethoxyphenyl)-2-(4-sulfophenyl)-2H-tetrazolium)” for “(3-(4,5-dimethyl-thiazol-2-yl)-5-(3-carboxymethoxyphenyl)-2-(4-sulfophenyl)-2H-tetra-zolium)”
as §2, with “2×10^3 PC3” for “10^3 HCT116”
as §3, with “GI50” for “G150”

USP7 = target: T1, USP7 (Homo sapiens, UniProt Q93009); test: USP7 activity assay; type: biochemical; conditions: 400 nM Ub-AMC, 152 pM enzyme; pre-incubated 30 minutes at 25° C., 60 minutes at 37° C.; sigmoidal fit; read-out: USP 7
T1 construct: His tag (pFastBac-HT vector) (N); made in house; host or cells: Sf9 or High Five insect cells (baculovirus)
From the text: The cDNA encoding USP7 was obtained by PCR amplification from placenta mRNA. USP7 cDNA was subcloned by PCR into a baculovirus expression vector (pFastBac-HT; Invitrogen). A cDNA encoding a mutated USP7 was generated by mutagenic PCR. The corresponding protein encodes a cysteine to alanine substitution at residue 223. The sequences were ascertained by sequencing of the entire open reading frame. Bacmids encoding USP7 were generated following DH10bac transposition. The corresponding bacmids were transfected into insect cells (Sf9). Viruses were recovered from culture supernatant and amplified twice. Insect cells (Sf9 or High Five; lnvitrogen) were infected for 72 hours. Total cell lysates were harvested and lyzed in lysis buffer (Tris HCl 50 mM pH 7.6; 0.75 % NP40; 500 mM NaCl; 10% glycerol; 1 mM DTT; 10 mM imidazole; Protease Inhibitor Cocktail; AEBSF 20 μg.ml^−1; Aprotinin 10 μg.ml^−1). Proteins were affinity purified on metal affinity resins (Talon Metal affinity resin; BD Biosciences). Bound materials were extensively washed in wash buffer (50 mM Sodium Phosphate pH 7.0; 300 mM NaCl; 10 mM imidazole; 0.5% Triton X-100; 10% glycerol) and eluted from the resin in 250 mM imidazole-containing wash buffer. Proteins were dialyzed in dialysis buffer (Tris HCl pH 7.6 20 mM; NaCl 200 mM; DTT 1 mM; EDTA 1 mM; 10% Glycerol). Proteins purifications were analyzed on 4-12% NuPAGE (Invitrogen).
USP7 was diluted in USP buffer (50 mM Tris HCl; 0.5 mM EDTA; 5 mM DTT; 0.01 % Triton X-100; Bovine Serum Albumin 0.05 mg.ml^−1 pH 7.6). Compounds stocks (100 mM) were stored at −20° C. in DMSO. Compounds were tested at the following final concentrations: 100 μM; 33.3 μM; 11.1 μM; 3.7 μM; 1.23 μM; 412 nM; 137 nM; 45.7 nM; 15.2 nM; 5 nM.
(§4) Reactions were performed as duplicates in Black LJL 96 well plates (HE microplates; Molecular Devices; 20 μl final reaction volume). The substrate concentration for USP7 was 400 nM Ub-AMC (Chem. Biol., 2003, 10, p. 837-846) (Boston Biochem). The concentrations of the enzyme (USP7) in specificity assays was 152 pM. The concentrations were determined in order to perform specificity assays under initial velocities at fixed substrate concentration. Compounds were pre-incubated with enzymes for 30 minutes at 25° C. Reactions were initiated by addition of substrate to the plates containing the enzymes (+/− compounds) diluted in assay buffer. Reactions were incubated for 60 minutes at 37° C. Reactions were stopped by adding acetic acid (100 mM final). Readings were performed on a Pherastar Fluorescent Reader (BMG). λ Emission 380 nm; λ Excitation=460 nm. Data (mean values +/− standard deviation) were analyzed as % of control (no compound) and plotted as percentage versus the Log of the compound concentration using GraphPad (Prism). Data were fitted to a sigmoidal model (variable slope).

USP5 = target: T2, USP5 (Homo sapiens, UniProt P45974); test: USP5 activity assay; type: biochemical; conditions: 400 nM Ub-AMC, 300 pM enzyme; pre-incubated 30 minutes at 25° C., 60 minutes at 37° C.; sigmoidal fit; read-out: USP 5
T2 sequence (P45974 1-858): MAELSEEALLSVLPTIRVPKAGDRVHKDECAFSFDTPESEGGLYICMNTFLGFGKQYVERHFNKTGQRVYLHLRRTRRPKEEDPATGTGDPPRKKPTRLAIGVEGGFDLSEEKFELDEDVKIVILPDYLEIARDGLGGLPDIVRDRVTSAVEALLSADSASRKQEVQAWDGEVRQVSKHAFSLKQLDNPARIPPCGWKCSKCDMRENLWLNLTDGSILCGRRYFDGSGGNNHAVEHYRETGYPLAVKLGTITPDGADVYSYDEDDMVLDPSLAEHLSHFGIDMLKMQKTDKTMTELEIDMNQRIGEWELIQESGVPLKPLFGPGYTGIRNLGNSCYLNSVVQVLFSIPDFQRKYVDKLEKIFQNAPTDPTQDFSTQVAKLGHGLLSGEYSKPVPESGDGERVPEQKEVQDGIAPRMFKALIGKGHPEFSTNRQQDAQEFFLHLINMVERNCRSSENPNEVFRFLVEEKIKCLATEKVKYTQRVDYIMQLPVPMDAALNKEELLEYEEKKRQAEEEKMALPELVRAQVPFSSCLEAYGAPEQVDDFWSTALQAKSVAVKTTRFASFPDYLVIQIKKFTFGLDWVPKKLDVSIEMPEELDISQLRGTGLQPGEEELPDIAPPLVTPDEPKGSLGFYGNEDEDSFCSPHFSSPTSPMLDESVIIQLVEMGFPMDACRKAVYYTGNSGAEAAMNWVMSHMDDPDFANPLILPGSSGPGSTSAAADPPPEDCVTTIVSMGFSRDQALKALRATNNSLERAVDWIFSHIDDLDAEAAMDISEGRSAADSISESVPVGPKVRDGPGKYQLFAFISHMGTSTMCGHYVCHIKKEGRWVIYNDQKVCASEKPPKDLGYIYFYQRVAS
Protocol: USP5 was diluted in USP buffer (50 mM Tris HCl; 0.5 mM EDTA; 5 mM DTT; 0.01% Triton X-100; Bovine Serum Albumin 0.05 mg.ml^−1 pH 7.6). Compounds stocks (100 mM) were stored at -20° C. in DMSO.
as §4, with “USP5” for “USP7”, “Ub-AMC” for “Ub-AMC (Chem. Biol., 2003, 10, p. 837-846)”, “(USP5)” for “(USP7)”, “300” for “152”

T1 sequence (Q93009 whole entry): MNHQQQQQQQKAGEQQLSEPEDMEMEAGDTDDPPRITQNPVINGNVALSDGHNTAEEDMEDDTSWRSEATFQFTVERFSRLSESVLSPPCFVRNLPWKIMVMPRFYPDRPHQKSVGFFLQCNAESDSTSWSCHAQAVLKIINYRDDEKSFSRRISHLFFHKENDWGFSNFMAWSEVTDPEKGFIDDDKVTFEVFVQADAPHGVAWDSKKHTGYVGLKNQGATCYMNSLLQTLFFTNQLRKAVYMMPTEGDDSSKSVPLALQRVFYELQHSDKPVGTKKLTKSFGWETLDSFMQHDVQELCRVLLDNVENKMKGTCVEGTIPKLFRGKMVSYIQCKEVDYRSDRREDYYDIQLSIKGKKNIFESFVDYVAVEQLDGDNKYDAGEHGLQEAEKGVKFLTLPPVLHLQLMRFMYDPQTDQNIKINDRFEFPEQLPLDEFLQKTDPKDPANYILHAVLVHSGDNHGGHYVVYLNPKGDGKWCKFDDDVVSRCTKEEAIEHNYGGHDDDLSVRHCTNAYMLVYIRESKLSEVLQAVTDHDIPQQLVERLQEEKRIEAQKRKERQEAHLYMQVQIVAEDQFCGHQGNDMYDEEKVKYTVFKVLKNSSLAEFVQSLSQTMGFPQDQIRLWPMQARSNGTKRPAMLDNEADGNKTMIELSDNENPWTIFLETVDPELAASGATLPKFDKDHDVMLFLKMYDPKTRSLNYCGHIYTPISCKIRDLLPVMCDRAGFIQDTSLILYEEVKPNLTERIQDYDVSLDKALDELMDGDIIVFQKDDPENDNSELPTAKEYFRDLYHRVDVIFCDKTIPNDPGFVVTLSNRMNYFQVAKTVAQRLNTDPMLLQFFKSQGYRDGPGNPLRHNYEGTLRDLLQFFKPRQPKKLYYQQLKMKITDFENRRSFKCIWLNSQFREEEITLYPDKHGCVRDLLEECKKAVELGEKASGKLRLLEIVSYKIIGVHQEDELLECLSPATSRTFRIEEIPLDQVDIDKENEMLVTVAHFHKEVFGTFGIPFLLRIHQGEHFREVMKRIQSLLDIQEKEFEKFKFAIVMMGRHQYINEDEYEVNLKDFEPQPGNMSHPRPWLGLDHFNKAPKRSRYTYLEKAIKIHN

GI50 [1] [nM] | GI50 [2] [nM] | IC50 (USP7) [nM] | IC50 (USP5) [nM] | SMILES
84 | 334 | – | – | Cc1nnc2nc3c(nn12)-c1ccccc1C3=O [Example 1b/B, 3-Methyl-1,2,3a,4,10-pentaaza-cyclopenta[b]fluoren-9-one]
8500 | – | – | – | Nc1nnc2nc3c(nn12)C(=O)c1ccccc1-3 [Example 1c/A, 1-Amino-2,3,4,10,10a-pentaaza-cyclopenta[b]fluoren-9-one]
1400 | 5400 | – | – | CCc1nnc2nc3c(nn12)C(=O)c1ccccc1-3 [Example 1d/A, 1-Ethyl-2,3,4,10,10a-pentaaza-cyclopenta[b]fluoren-9-one]
59 | 256 | – | – | CCc1nnc2nc3c(nn12)-c1ccccc1C3=O [Example 1d/B, 3-Ethyl-1,2,3a,4,10-pentaaza-cyclopenta[b]fluoren-9-one]
3100 | 4200 | > 100000 | – | CCCc1nnc2nc3c(nn12)C(=O)c1ccccc1-3 [Example 1e/A, 1-Propyl-2,3,4,10,10a-pentaaza-cyclopenta[b]fluoren-9-one]
67 | 175 | – | – | CCCc1nnc2nc3c(nn12)-c1ccccc1C3=O [Example 1e/B, 3-Propyl-1,2,3a,4,10-pentaaza-cyclopenta[b]fluoren-9-one]
1360 | 3800 | – | – | CCCCc1nnc2nc3c(nn12)C(=O)c1ccccc1-3 [Example 1f/A, 1-Butyl-2,3,4,10,10a-pentaaza-cyclopenta[b]fluoren-9-one]
40 | 96 | – | – | CCCCc1nnc2nc3c(nn12)-c1ccccc1C3=O [Example 1f/B, 3-Butyl-1,2,3a,4,10-pentaaza-cyclopenta[b]fluoren-9-one]
3000 | 4000 | > 100000 | – | CC(C)Cc1nnc2nc3c(nn12)C(=O)c1ccccc1-3 [Example 1g/A, 1-Isobutyl-2,3,4,10,10a-pentaaza-cyclopenta[b]fluoren-9-one]
53 | 162 | – | – | CC(C)Cc1nnc2nc3c(nn12)-c1ccccc1C3=O [Example 1g/B, 3-Isobutyl-1,2,3a,4,10-pentaaza-cyclopenta[b]fluoren-9-one]
323 | 1440 | – | – | O=C1c2ccccc2-c2nn3c(CO)nnc3nc21 [Example 1h/B, 3-Hydroxymethyl-1,2,3a,4,10-pentaaza-cyclopenta[b]fluoren-9-one]
1280 | 1750 | > 100000 | – | COCc1nnc2nc3c(nn12)C(=O)c1ccccc1-3 [Example 1i/A, 1-Methoxymethyl-2,3,4,10,10a-pentaaza-cyclopenta[b]fluoren-9-one]
65 | 238 | – | – | COCc1nnc2nc3c(nn12)-c1ccccc1C3=O [Example 1i/B, 3-Methoxymethyl-1,2,3a,4,10-pentaaza-cyclopenta[b]fluoren-9-one]
– | – | – | 3100 | O=C1c2ccccc2-c2nc3nnc(C4CC4)n3nc21 [Example 1j/A, 1-Cyclopropyl-2,3,4,10,10a-pentaaza-cyclopenta[b]fluoren-9-one]
98 | 286 | – | – | Cc1nnc2nc3c(nn12)-c1ccc(Cl)cc1C3=O [Example 3/B, 7-Chloro-3-methyl-1,2,3a,4,10-pentaaza-cyclopenta[b]fluoren-9-one]
